“Also recorded” adds a separate entry of the source.
Key:
[1] = system: HCT116 cells engineered to over-express E coli NfsA; test: Low cell density IC50 (SRB) assay, HCT116 wild type versus E coli NfsA over-expressing cells; assay type: cell-based, human
Experimental: (§1) Compounds were subjected to testing, including low-cell density cytotoxicity assay. Cells (500 cells/well) were seeded in 96-well plates and exposed to prodrug for 4 h, washed, then left to grow for a further 5 days. The SRB assay was employed to determine IC50 values (concentration of prodrug required to inhibit proliferation by 50%). Parental HCT116 cells (HCT116 is a cell line derived from human colon cancer) and cells expressing the example nitroreductase gene nfsA from Escherichia coli were evaluated head-to-head. Parental H1299 cells (H1299 is a cell line derived from lung cancer) and cells expressing the example nitroreductase gene nfsA from Escherichia coli were evaluated head-to-head. Parental HCT116 cells and cells expressing human AKR1C3 were evaluated head-to-head. Parental H1299 cells and cells expressing human AKR1C3 were evaluated head-to-head. In a variation of these assays test compounds were assessed for their ability to give hypoxia-selective cell killing. Here wild type HCT116, H460 (H460 is a cell line derived from lung cancer), H1299 and SiHa cells (SiHa is a cell line derived from cervical cancer) were used in addition to HCT116 cells engineered to over express cytochrome P450 reductase (HCT116 POR), a human one-electron nitroreductase. Low-cell density cytotoxicity assays were performed as above under oxic conditions and compared to experiments where cells were shown 4 h of anoxia during the prodrug exposure period, before being washed free of prodrug and then left to grow for a further 5 days under oxic conditions, as above.

[2] = system: H1299 cells engineered to over-express E coli NfsA; test: Low cell density IC50 (SRB) assay, H1299 wild type versus E coli NfsA over-expressing cells; assay type: cell-based, human
Experimental: as §1

[3] = system: HCT116 MCLs over-expressing AKR1C3; test: Multicellular layer (MCL) clonogenic assay, HCT116 wild type versus AKR1C3 over-expressing MCLs; assay type: cell-based, human
Experimental: (§2) In parallel, a three dimensional high-cell density multi-cellular layer (MCL) clonogenic assay was performed. 1×10^6 cells of either 100% HCT-116^WT or containing 97% WT with a minor 3% HCT-116^NTR cell population were seeded into a collagen-coated Teflon microporous membrane and left to grow for 3 days. MCLs were then exposed to prodrug for 5 h. After treatment, MCLs were enzyme dissociated, diluted in fresh medium and plated to determine clonogenic survival. To discriminate clonogenic activator (NTR+) from target (NTR−) colonies, cells were plated in non-selective medium (total cells) and medium containing 1 μM puromycin (activator cells). Colonies were grown for 10 days before staining. Colonies containing >50 cells were counted. A variation of this assay was also used to assess for evidence of AKR1C3-dependent cytotoxicity. Here either 100% HCT-116W^T or 100% HCT-116^AKR1C3 cells were seeded to provide MCLs that were then exposed to prodrug.

[4] = system: HCT116 cells engineered to over-express human aldo-ketoreductase 1C3 (AKR1C3); test: Low cell density IC50 (SRB) assay, HCT116 wild type versus AKR1C3 over-expressing cells; assay type: cell-based; details: 4 h exposure
Experimental: as §1

[5] = system: 15% E coli NfsA-expressing H1299 xenografts; test: Tumour growth delay, 15% E coli NfsA-expressing H1299 xenografts; assay type: in vivo, NIH-III mice
Experimental: Animals weighed 18-25 g at the time of tumour inoculation. Tumours were grown subcutaneously on the right flank of mice by inoculating cells grown in tissue culture (1×10^7 cells in 100 uL serum free α-MEM). Tumour sizes were monitored three times weekly using electronic callipers and treatments were initiated once tumour diameter reached ≥7 mm.
Tumour bearing mice were randomised into the appropriate treatment groups and tumour size and body weight recorded. Test compounds were formulated on the day of the experiment and kept in foil-wrapped tubes out of direct fluorescent light. If recruitment of animals occurred over multiple days, the drug stocks were aliquoted into tubes and frozen once at […] until required. Mice were treated with a single (or BID) dose of prodrug by intraperitoneal injection and thereafter tumour size and body weight was monitored every second day. Tumour volume was calculated as π (l×w×w)/6, where l is the major axis and w is the perpendicular minor axis. Animals were culled when they had reached the appropriate survival endpoint or when body weight loss exceeded 20% of the pre-treatment value.

[6] = system: wild type SiHa tumour xenografts; test: Excision assay with and without radiation, wild type SiHa tumour xenografts; assay type: in vivo, NIH-III nude mice
Experimental: Tumours were grown subcutaneously in the flank of NIH-III mice by inoculating cells grown in tissue culture. Tumours were monitored using electronic calipers. When tumours reached treatment size, mice were randomized to treatment groups (five to seven per group). Compounds were given as single (or BID) intraperitoneal doses alone or 5 min after whole body irradiation (^60Co source). Eighteen hours after treatment, tumours were excised, weighed, minced, dissociated enzymatically, and plated to determine clonogenicity. Clonogens/gram of tissue were calculated relative to controls and effects of treatment were tested for significance (ANOVA with Dunnett's).

[7] = system: H1299 cells engineered to over-express human aldo-ketoreductase 1C3 (AKR1C3); test: Low cell density IC50 (SRB) assay, H1299 wild type versus AKR1C3 over-expressing cells; assay type: cell-based; details: 4 h exposure
Experimental: as §1

[8] = system: HCT116 MCLs with 3% E coli NfsA-expressing cells; test: MCL clonogenic bystander assay, HCT116 MCLs seeded with 3% E coli NfsA-expressing cells; assay type: cell-based, human; details: 97% wild type HCT116, 3% E coli NfsA-expressing cells
Experimental: as §2

[9] = system: bacterial nitroreductases from the NfsA and NfsB families; test: GFP SOS assay with nitroreductase over-expression library; assay type: cell-based, E. coli strain SOS-R4; details: 55 candidate nitroreductase library, 6 h challenge
Source text: The method employed the over-expression of a candidate nitroreductase gene from plasmid pUCX in an SOS reporter strain, as first described in Prosser et al., 2010, Biochem Pharmacol 79, 678-687. In order to enhance the sensitivity of the SOS reporter system, an sfiA::GFP reporter construct was integrated into a CDF-based plasmid (which contains a compatible origin of replication with pUCX) to give the pANODuet reporter plasmid for GFP screening. In addition, nfsA, nfsB, azoR, and nemA genes were deleted to minimise background metabolism, and the tolC gene deleted to minimise efflux of test compounds; this strain was designated SOS-R3. Further improvements were obtained by deleting the mdaB, ycaK, and yieF genes to minimise background metabolism, and by introducing transcriptional terminators to the pANODUET reporter plasmid. This final reporter strain was designated SOS-R4.
Stored glycerols of the 55-membered nitroreductase library in SOS-R4 were thawed and used to inoculate overnight cultures (Lysogeny Broth (LB) amended with 100 μg ml^−1 Ampicillin, 50 μg ml^−1 Spectinomycin, 0.4% glucose) that were incubated at 30° C., 200 rpm for 16 h. The next morning the GFP-SOS assay was commenced by inoculation of 195 μl fresh assay media (LB+100 μg ml^−1 Ampicillin, 50 μg ml^−1 Spectinomycin, 0.2% glucose, 50 μM IPTG) with 15 μl of overnight culture in individual wells of a 96-well plate. Plates were incubated at 30° C., 200 rpm for 2.5 h (pre-challenge period), following which cultures were diluted 1:2 by splitting 50:50 into fresh assay media (+DMSO to 0.5% final concentration) and fresh challenge media (assay media+drug to desired concentration, DMSO to 0.5% final concentration) to final volumes of 80 μl apiece in duplicate on a 384-well plate. Plates were incubated at 30° C., 200 rpm for 6 h (challenge period). GFP expression was determined at excitation 488 nm/emission 509 nm. Turbidity was determined by OD600 and fluorescence data from any replicates not found to be within 15% of the median culture turbidity were discarded.

[10] = system: bacterial nitroreductases from the NfsA and NfsB families; test: as above; assay type: cell-based, E. coli strain SOS-R4; details: single and poly mutated variants of NfsA_Ec, single-mutated variant of NfsA_Bs

SMILES	E coli NfsA-mediated cytotoxicity (IC50 wild type versus NfsA) [1]	E coli NfsA-mediated cytotoxicity (IC50 wild type versus NfsA) [2]	AKR1C3-dependent clonogenic cell kill in MCLs [3]	AKR1C3-mediated cytotoxicity (IC50 wild type versus AKR1C3) [4]	bystander cell killing in MCLs [8]	metabolism by bacterial nitroreductases (SOS response) [9]	activity with mutated nitroreductase variants [10]	also measured
CS(=O)(=O)OCCN(CCBr)c1c(C(=O)NCCO)cc([N+](=O)[O-])cc1[N+](=O)[O-] [PR-104A, 2-((2-bromoethyl)(2-((2-hydroxyethyl)carbamoyl)-4,6-dinitrophenyl)amino)ethyl methanesulfonate, reference compound]	produce E coli NfsA-mediated cytotoxicity	produce E coli NfsA-mediated cytotoxicity	–	–	–	–	–	–
CCN(CCO)C(=O)c1cc([N+](=O)[O-])cc([N+](=O)[O-])c1N(CCBr)CCBr [compound 7, reference compound]	–	–	capable of producing AKR1C3-dependent cell ablation	–	–	–	–	–
CC(C)N(CCO)C(=O)c1cc([N+](=O)[O-])cc([N+](=O)[O-])c1N(CCBr)CCBr [compound 8, reference compound]	–	–	–	appear negative for AKR1C3 dependent cell sensitivity	–	–	–	–
CCCN(CCO)C(=O)c1cc([N+](=O)[O-])cc([N+](=O)[O-])c1N(CCBr)CCBr [compound 9, reference compound]	–	–	capable of producing AKR1C3-dependent cell ablation	appears to be AKR1C3-negative; also recorded: appear negative for AKR1C3 dependent cell sensitivity	–	–	–	–
CCS(=O)(=O)c1cc([N+](=O)[O-])c(C(=O)N(C)CCOP(=O)(O)O)cc1N(CCBr)CCBr [compound 11, 2-(5-(bis(2-bromoethyl)amino)-4-(ethylsulfonyl)-N-methyl-2-nitrobenzamido)ethyl dihydrogen phosphate]	–	–	–	–	–	–	–	tumour growth delay ([5]; mixed HCT116 and H1299 xenografts, 15% E coli NfsA cells, single (or BID) intraperitoneal dose): profound tumour growth delay; E coli NfsA mediated anti-tumour efficacy (mean tumour volume) ([5]; single dose, 10, 22, 60 and 11 at 750, 422, 1330 and 1330 umol/kg): display significant E coli NfsA mediated anti-tumour efficacy; cell killing in combination with radiation versus radiation alone ([6]; HCT116 POR and wild type SiHa xenografts, 10 or 15Gy, single (or BID) intraperitoneal dose): increased cell killing above what could be achieved with radiation alone; hypoxic cell kill in vivo (log cell kill) ([6]; with or without 10Gy radiation, 22 at 422, 300 and 11 at 1330, 23 at 1000 umol/kg): significant hypoxic cell kill in vivo
CC(C)N1CCN(C(=O)c2cc(N(CCBr)CCBr)c(S(C)(=O)=O)cc2[N+](=O)[O-])CC1 [compound 24, (5-(bis(2-bromoethyl)amino)-4-(methylsulfonyl)-2-nitrophenyl)(4-isopropylpiperazin-1-yl)methanone]	produce E coli NfsA-mediated cytotoxicity	produce E coli NfsA-mediated cytotoxicity	do not cause AKR1C3-dependant cytotoxicity	less susceptible to AKR1C3-mediated cytotoxicity than PR-104A	display evidence of metabolism by the 3% E coli NfsA-expressing cells with bystander cell killing of the 97% non-expressing neighbour cells	substrates for multiple wild type and mutant bacterial nitroreductases from the NfsA and NfsB families	demonstrated	AKR1C3-mediated cytotoxicity (IC50 wild type versus AKR1C3) [7]: less susceptible to AKR1C3-mediated cytotoxicity than PR-104A
CCS(=O)(=O)c1cc([N+](=O)[O-])c(C(=O)N2CCN(C)CC2)cc1N(CCBr)CCBr [compound 25, (5-(bis(2-bromoethyl)amino)-4-(ethylsulfonyl)-2-nitrophenyl)(4-methylpiperazin-1-yl)methanone]	produce E coli NfsA-mediated cytotoxicity	produce E coli NfsA-mediated cytotoxicity	do not cause AKR1C3-dependant cytotoxicity	less susceptible to AKR1C3-mediated cytotoxicity than PR-104A	display evidence of metabolism by the 3% E coli NfsA-expressing cells with bystander cell killing of the 97% non-expressing neighbour cells	substrates for multiple wild type and mutant bacterial nitroreductases from the NfsA and NfsB families	demonstrated	AKR1C3-mediated cytotoxicity (IC50 wild type versus AKR1C3) [7]: less susceptible to AKR1C3-mediated cytotoxicity than PR-104A
CS(=O)(=O)OCCN(CCBr)c1ccc([N+](=O)[O-])cc1C(=O)NCCO [compound 64, 2-((2-bromoethyl)(2-((2-hydroxyethyl)carbamoyl)-4-nitrophenyl)amino)ethyl methanesulfonate]	produce E coli NfsA-mediated cytotoxicity	produce E coli NfsA-mediated cytotoxicity	do not cause AKR1C3-dependant cytotoxicity	less susceptible to AKR1C3-mediated cytotoxicity than PR-104A	display evidence of metabolism by the 3% E coli NfsA-expressing cells with bystander cell killing of the 97% non-expressing neighbour cells	substrates for multiple wild type and mutant bacterial nitroreductases from the NfsA and NfsB families	demonstrated	–

Reference: patent US10202408B2, “Prodrugs and methods of use thereof” (Health Innovation Ventures B.V., priority 2012, dated 2019)
